The test system of the assay is human PCSK9. Nature of the assay: Cell Free PCSK9 Assay (PCSK9-luciferase mRNA translation in HeLa lysate). Type of assay: biochemical. The settings on record: PCSK9-luciferase RNA, 30° C. for 45 minutes, top concentration 100 μM. The protocol:
As defined herein inhibition of translation of PCSK9 mRNA to PCSK9 protein is determined by the “Cell Free PCSK9 Assay” provided herein in the specification. This “Cell Free PCSK9 Assay” is specific to the production of PCSK9 protein from PCSK9 mRNA and therefore detects inhibitors of this translational process rather than other mechanisms by which PCSK9 protein may be reduced.
In order to eliminate the permeability barrier inherent to the WT7 cell-based assays a cell-free system was also established to assess compound activitiy. A sequence containing the full length human PCSK9 (NCBI reference identifier, NM_174936.3, where coding sequence start annotated at position 363) along with 84 additional 3′ nucleotides, comprising a V5 tag and polylinker followed by an in frame modified firefly luciferase reporter (corresponding to nucleotide positions 283-1929 of pGL3, GenBank reference identifier JN542721.1) was cloned into the pT7CFE1 expression vector (ThermoScientific). The construct was then in-vitro transcribed using the MEGAscript T7 Kit (Life Technologies) and RNA subsequently purified incorporating the MEGAclear Kit (Life Technologies) according to manufacturer's protocols. HeLa cell lysates were prepared following the protocols described by Mikami (reference is Cell-Free Protein Synthesis Systems with Extracts from Cultured Human Cells, S. Mikami, T. Kobayashi and H. Imataka; from Methods in Molecular Biology, vol. 607, pages 43-52, Y. Endo et al. (eds.), Humana Press, 2010) with the following modifications. Cells were grown in a 20 L volume of CD293 medium (Gibco 11765-054) with Glutamax increased to 4 mM, penicillin at 100 U/mL and other additions as previously described by Mikami. Growth was in a 50 L wavebag at a rocker speed of 25 rpm and angle 6.1 with 5% CO2 and 0.2 LPM flow rate with cells harvested at a density of 2-2.5e6/mL. Lysates additionally contained 1 tablet of Roche cOmplete-EDTA protease inhibitors per 50 mL with tris(2-carboxyethyl)phosphine (Biovectra) substituted for dithiothreitol, and were clarified by an additional final centrifugation at 10,000 rpm in a Sorvall SS34 rotor at 4° C. for 10 minutes. Compound screening was performed in 384-well plates in an eleven point, 0.5 log dilution format at a top test compound concentration of 100 μM in a final volume of 0.5% DMSO. In additional to these test compound conditions each screening plate also included wells that contained 100 μM of compound example 16 (as depicted in WO2014170786; N-(3-chloropyridin-2-yl)-N-[(3R)-piperidin-3-yl]-4-(3H-[1,2,3]triazolo[4,5-b]pyridin-3-yl)benzamide) as a positive assay control defined as high percent effect, HPE, as well as wells containing media in 0.5% DMSO as a negative treatment control defined as zero percent effect, ZPE. Compounds were incubated at 30° C. for 45 minutes in a solution containing 0.1 μg of purified, in-vitro transcribed RNA together with the cell-free reaction mixture (consisting of 1.6 mM Mg and 112 mM K salts, 4.6 mM tris(2-carboxyethyl)phosphine (Biovectra), 5.0 μL HeLa lysate, 0.2 μL RNAsin (Promega) and 1.0 μL energy mix (containing 1.25 mM ATP (Sigma), 0.12 mM GTP (Sigma), 20 mM creatine phosphate (Santa Cruz), 60 μg/mL creatine phosphokinase (Sigma), 90 μg/mL tRNA (Sigma) and the 20 amino acids (Life Technologies) at final concentrations described by Mikami) and brought up in water to a final volume of 10 μL in water. Upon assay completion 1 μL from each reaction solution was removed and transferred to a second 384-well Optiplate (Perkin Elmer) containing 24 μL of SteadyGlo (Promega) and signal intensity was measured on the Envision (Perkin Elmer) using the enhanced luminescence protocol. To determine compound IC50 the data for HPE and ZPE control wells were first analyzed and the mean, standard deviation and Z prime calculated for each plate. The test compound data were converted into percent effect, using the ZPE and HPE controls as 0% and 100% activity, respectively, applying Equation 1 above. […]

A word on the IC50: it is the concentration needed to halve the response being measured. A lower IC50 goes with higher potency. As for `CCOC(=O)O[C@@H](C)n1nnnc1-c1c(-c2ccc(C(=O)N(c3ncccc3C)[C@@H]3CCCNC3)cc2F)cnn1C` [Example 8, ethyl (S)-1-{5-[4-(4-{(3-methylpyridin-2-yl)[(3R)-piperidin-3-yl]carbamoyl}-2-fluorophenyl)-1-methyl-1H-pyrazol-5-yl]-1H-tetrazol-1-yl}ethyl carbonate], 11 µM corresponded to half-maximal inhibition (IC50).
The molecule `Cn1ncc(-c2ccc(C(=O)N(c3ncccc3Cl)[C@@H]3CCCNC3)cc2F)c1-c1nn[nH]n1` [Example 3, N-(3-chloropyridin-2-yl)-3-fluoro-4-[1-methyl-5-(2H-tetrazol-5-yl)-1H-pyrazol-4-yl]-N-[(3R)-piperidin-3-yl]benzamide] came in with an IC50 of 2.8 µM. Compared with the last molecule, the IC50 is about 3.9-fold lower.
The molecule `CCOC(=O)O[C@@H](C)n1nnnc1-c1c(-c2ccc(C(=O)N(c3ncccc3C)[C@@H]3CCCNC3)cc2)cnn1C` [Example 5a, ethyl (S)-1-{5-[1-methyl-4-(4-{(3-methylpyridin-2-yl)[(3R)-piperidin-3-yl]carbamoyl}phenyl)-1H-pyrazol-5-yl]-1H-tetrazol-1-yl}ethyl carbonate] displayed a half-maximal inhibitory concentration (IC50) of 8.2 µM.
Consider `CCOC(=O)O[C@@H](C)n1nnnc1-c1c(-c2ccc(C(=O)N(c3ncccc3Cl)[C@@H]3CCCNC3)nc2)cnn1C` [Example 10, ethyl (S)-1-{5-[4-(6-{(3-chloropyridin-2-yl)[(3R)-piperidin-3-yl]carbamoyl}pyridin-3-yl)-1-methyl-1H-pyrazol-5-yl]-1H-tetrazol-1-yl}ethyl carbonate], for which the 50% inhibitory concentration (IC50) was over 74 µM.
`CCOC(=O)O[C@H](C)n1nnnc1-c1c(-c2ccc(C(=O)N(c3ncccc3C)[C@@H]3CCCNC3)cc2)cnn1C` [Example 5b, ethyl (R)-1-{5-[1-methyl-4-(4-{(3-methylpyridin-2-yl)[(3R)-piperidin-3-yl]carbamoyl}phenyl)-1H-pyrazol-5-yl]-1H-tetrazol-1-yl}ethyl carbonate] registered a half-maximal inhibitory concentration (IC50) of 6.4 µM. In other words, the single-digit micromolar range.
Regarding `CCOC(=O)O[C@@H](C)n1nnnc1-c1c(-c2ccc(C(=O)N(c3ncccc3Cl)[C@@H]3CCCNC3)cc2F)cnn1C` [Example 7, ethyl (S)-1-{5-[4-(4-{(3-chloropyridin-2-yl)[(3R)-piperidin-3-yl]carbamoyl}-2-fluorophenyl)-1-methyl-1H-pyrazol-5-yl]-1H-tetrazol-1-yl}ethyl carbonate], the concentration for half-maximal inhibition (IC50) was determined as 13.4 µM.
For `CCOC(=O)O[C@@H](C)n1nnnc1-c1c(-c2ccc(C(=O)N(c3ncccc3C)[C@@H]3CCCNC3)nc2)cnn1C` [Example 9, ethyl (S)-1-{5-[1-methyl-4-(6-{(3-methylpyridin-2-yl)[(3R)-piperidin-3-yl]carbamoyl}pyridin-3-yl)-1H-pyrazol-5-yl]-1H-tetrazol-1-yl}ethyl carbonate], half-maximal inhibition (IC50) was put at 58.9 µM.
On to `CCOC(=O)O[C@@H](C)n1nnnc1-c1c(-c2ccc(C(=O)N(c3ncccc3Cl)[C@@H]3CCCNC3)cc2)cnn1C` [Example 6, ethyl (S)-1-{5-[1-methyl-4-(4-{(3-chloropyridin-2-yl)[(3R)-piperidin-3-yl]carbamoyl}phenyl)-1H-pyrazol-5-yl]-1H-tetrazol-1-yl}ethyl carbonate], for which it took 10.3 µM to reach half-maximal inhibition (IC50). This IC50 lies about 5.7-fold lower than the previous one.

For the origin of these results see patent US20160102074A1, “SUBSTITUTED AMIDE COMPOUNDS” (PFIZER INC., priority 2014, published 2016).
